Data as given in patent US10168342B2, “Lipid probes and uses thereof” (THE SCRIPPS RESEARCH INSTITUTE, priority 2015, dated 2019).
Read-outs that look alike come from different tables or passages of the source.

How the values were obtained:
[1] = target: AEA-DA lipid probe targets in Neuro2a cells (Mus musculus, UniProt Q9DBG6)
[2] = target: T1, AEA-DA lipid probe targets in Neuro2a cells (Mus musculus, UniProt P37040)
T1 sequence (P37040 1-678): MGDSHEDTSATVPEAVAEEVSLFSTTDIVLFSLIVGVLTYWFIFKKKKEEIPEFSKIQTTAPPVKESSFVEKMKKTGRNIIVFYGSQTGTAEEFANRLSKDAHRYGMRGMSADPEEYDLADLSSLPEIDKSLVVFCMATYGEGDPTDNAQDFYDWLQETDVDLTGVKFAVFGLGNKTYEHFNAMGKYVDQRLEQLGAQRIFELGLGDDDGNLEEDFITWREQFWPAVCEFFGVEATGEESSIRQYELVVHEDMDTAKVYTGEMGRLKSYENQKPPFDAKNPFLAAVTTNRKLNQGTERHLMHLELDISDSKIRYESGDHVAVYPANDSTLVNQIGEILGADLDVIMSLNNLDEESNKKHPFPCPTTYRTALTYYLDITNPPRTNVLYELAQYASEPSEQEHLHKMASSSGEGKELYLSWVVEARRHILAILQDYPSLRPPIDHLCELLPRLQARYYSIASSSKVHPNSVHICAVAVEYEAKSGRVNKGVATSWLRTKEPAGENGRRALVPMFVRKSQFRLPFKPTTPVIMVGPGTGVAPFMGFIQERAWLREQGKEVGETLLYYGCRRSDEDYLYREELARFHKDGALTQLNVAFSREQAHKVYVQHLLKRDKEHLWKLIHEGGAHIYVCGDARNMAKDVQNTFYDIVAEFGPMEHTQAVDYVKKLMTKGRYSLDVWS

[3] = target: T2, AEA-DA lipid probe targets in Neuro2a cells (Mus musculus, UniProt Q9WTQ8)
T2 sequence (Q9WTQ8 1-209): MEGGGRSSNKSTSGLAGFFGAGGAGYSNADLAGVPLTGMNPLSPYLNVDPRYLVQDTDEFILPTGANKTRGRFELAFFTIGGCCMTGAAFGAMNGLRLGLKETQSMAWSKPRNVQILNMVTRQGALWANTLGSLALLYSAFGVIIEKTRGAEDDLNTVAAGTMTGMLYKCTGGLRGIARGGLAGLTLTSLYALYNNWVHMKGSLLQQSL

[4] = target: T3, AEA-DA lipid probe targets in Neuro2a cells (Mus musculus, UniProt Q8CAQ8)
T3 sequence (Q8CAQ8 34-757): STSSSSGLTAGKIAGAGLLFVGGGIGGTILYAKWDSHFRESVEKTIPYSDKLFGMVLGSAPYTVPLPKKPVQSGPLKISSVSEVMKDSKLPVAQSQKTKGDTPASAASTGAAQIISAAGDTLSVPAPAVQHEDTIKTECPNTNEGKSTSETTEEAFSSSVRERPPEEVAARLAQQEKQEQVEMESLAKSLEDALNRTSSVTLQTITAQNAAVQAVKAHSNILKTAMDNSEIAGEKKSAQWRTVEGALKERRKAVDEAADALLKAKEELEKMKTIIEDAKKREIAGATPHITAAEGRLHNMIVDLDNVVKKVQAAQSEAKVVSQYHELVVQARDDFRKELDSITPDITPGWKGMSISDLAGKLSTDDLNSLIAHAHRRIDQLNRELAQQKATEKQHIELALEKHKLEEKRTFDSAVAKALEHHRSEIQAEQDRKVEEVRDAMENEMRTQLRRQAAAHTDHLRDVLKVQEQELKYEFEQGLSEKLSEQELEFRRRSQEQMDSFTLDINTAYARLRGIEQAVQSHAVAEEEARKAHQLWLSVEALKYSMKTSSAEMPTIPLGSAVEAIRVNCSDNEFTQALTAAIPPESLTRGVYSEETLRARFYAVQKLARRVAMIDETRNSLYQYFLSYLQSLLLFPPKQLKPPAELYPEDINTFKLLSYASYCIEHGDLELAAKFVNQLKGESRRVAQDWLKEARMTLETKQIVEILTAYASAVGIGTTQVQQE

[5] = target: AEA-DA lipid probe targets in Neuro2a cells (Mus musculus, UniProt Q9DCH4)
Chain of AEA-DA lipid probe targets in Neuro2a cells (Mus musculus, UniProt Q9DCH4) (Q9DCH4 whole entry): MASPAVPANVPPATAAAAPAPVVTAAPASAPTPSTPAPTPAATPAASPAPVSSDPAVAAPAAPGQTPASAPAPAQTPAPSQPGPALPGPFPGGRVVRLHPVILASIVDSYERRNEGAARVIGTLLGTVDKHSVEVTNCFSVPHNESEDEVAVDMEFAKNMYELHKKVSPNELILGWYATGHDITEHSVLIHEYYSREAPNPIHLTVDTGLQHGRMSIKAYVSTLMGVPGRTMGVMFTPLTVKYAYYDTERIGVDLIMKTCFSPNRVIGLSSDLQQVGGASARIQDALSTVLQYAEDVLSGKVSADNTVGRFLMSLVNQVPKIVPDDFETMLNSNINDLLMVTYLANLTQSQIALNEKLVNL

[6] = target: T4, AEA-DA lipid probe targets in Neuro2a cells (Mus musculus, UniProt Q9WU62)
T4 sequence (Q9WU62 1-880): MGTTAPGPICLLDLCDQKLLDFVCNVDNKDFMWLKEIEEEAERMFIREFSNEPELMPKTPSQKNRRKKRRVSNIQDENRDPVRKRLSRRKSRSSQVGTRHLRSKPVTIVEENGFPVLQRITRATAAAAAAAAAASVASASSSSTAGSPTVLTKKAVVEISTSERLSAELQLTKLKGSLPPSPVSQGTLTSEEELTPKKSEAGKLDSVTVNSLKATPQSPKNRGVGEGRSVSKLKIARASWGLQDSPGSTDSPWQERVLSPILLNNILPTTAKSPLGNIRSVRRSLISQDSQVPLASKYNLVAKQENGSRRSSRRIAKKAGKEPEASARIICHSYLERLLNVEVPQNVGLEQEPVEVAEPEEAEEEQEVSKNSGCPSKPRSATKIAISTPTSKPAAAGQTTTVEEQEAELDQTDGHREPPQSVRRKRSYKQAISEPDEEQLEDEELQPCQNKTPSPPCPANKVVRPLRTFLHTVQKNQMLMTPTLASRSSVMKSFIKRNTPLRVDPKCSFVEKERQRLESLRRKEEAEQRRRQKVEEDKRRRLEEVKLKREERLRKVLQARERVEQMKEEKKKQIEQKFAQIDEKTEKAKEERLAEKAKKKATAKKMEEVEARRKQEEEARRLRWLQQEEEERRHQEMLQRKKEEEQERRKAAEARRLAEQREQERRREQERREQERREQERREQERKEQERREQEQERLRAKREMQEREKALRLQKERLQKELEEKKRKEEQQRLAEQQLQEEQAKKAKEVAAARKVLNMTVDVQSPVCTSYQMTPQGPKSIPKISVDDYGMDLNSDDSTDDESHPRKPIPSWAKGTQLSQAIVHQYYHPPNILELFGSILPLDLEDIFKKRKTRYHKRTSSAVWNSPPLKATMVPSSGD

[7] = target: AEA-DA lipid probe targets in Neuro2a cells (Mus musculus, UniProt O89079)
Chain of AEA-DA lipid probe targets in Neuro2a cells (Mus musculus, UniProt O89079) (O89079 whole entry): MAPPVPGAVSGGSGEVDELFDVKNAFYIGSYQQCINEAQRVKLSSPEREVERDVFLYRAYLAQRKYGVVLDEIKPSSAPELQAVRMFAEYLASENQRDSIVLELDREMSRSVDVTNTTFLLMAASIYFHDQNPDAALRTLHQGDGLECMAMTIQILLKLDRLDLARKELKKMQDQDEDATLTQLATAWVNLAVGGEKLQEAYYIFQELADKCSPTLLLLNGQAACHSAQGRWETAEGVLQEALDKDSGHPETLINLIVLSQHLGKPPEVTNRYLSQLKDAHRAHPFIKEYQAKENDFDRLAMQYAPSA

[8] = target: AEA-DA lipid probe targets in Neuro2a cells (Mus musculus, UniProt P36536)
Chain of AEA-DA lipid probe targets in Neuro2a cells (Mus musculus, UniProt P36536) (P36536 whole entry): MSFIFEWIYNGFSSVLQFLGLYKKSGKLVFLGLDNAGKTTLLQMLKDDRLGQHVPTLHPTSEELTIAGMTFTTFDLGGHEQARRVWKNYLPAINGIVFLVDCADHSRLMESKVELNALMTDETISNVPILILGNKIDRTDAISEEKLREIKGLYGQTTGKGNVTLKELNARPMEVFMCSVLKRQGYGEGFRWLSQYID

Chain of AEA-DA lipid probe targets in Neuro2a cells (Mus musculus, UniProt Q9DBG6) (Q9DBG6 23-631): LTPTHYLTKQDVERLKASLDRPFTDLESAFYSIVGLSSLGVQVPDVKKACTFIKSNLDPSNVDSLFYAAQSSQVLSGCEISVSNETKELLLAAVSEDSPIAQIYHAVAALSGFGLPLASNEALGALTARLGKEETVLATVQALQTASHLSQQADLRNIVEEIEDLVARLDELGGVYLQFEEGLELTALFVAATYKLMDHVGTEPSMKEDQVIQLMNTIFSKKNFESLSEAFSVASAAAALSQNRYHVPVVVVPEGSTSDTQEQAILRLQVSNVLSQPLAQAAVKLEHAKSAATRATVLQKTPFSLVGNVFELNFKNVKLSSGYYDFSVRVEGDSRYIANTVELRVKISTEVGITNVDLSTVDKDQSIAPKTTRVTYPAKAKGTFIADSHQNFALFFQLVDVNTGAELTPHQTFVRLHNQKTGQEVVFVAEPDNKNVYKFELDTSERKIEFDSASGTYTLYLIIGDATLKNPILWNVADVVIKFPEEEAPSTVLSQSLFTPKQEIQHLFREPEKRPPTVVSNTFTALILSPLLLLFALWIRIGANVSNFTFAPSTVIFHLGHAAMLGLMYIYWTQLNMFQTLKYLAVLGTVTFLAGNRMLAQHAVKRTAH

SMILES | SILAC ratio Rpn2 ([1]; competitor 25 μM) | SILAC ratio, Por ([2]; competitor 25 μM) | SILAC ratio, Timm23 ([3]; competitor 25 μM) | SILAC ratio Immt ([4]; competitor 25 μM) | SILAC ratio Eif3f ([5]; competitor 25 μM) | SILAC ratio Incenp ([6]; competitor 25 μM) | SILAC ratio, Sar1a ([8]; competitor 25 μM) | SILAC ratio Cope ([7]; competitor 25 μM) | other results
CCCCC/C=C\C/C=C\C/C=C\C/C=C\CCCC(=O)NCCO [AEA, anandamide, reference compound] | – | – | – | – | – | – | – | – | SILAC ratio Rpn2 ([1]; competitor 200 μM): 1.3; SILAC ratio, Por ([2]; competitor 200 μM): 2.0; SILAC ratio, Timm23 ([3]; competitor 200 μM): 1.8; SILAC ratio Immt ([4]; competitor 200 μM): 1.2; SILAC ratio Eif3f ([5]; competitor 200 μM): 1.4; SILAC ratio Incenp ([6]; competitor 200 μM): 1.4; SILAC ratio Cope ([7]; competitor 200 μM): 0.9
O=C(/C=C/c1cccnc1)NCCCCC1CCN(C(=O)c2ccccc2)CC1 [FK-866, reference compound] | 1.1 | 1.2 | 1.1 | 1.1 | 1.3 | 0.8 | 1.0 | 1.5 | –
CN1CCN(C(=O)c2c(-c3ccccc3)c3cc([N+](=O)[O-])ccc3n2C)CC1 [KML110, (1-Methyl-5-nitro-3-phenyl-1H-indol-2-yl)(4-methylpiperazin-1-yl)methanone] | 1.2 | 1.6 | 1.3 | 1.3 | 1.3 | 1.2 | 1.4 | – | –
CN1CCN(C(=O)c2[nH]c3ccc([N+](=O)[O-])cc3c2-c2ccccc2)CC1 [MJN228, (4-Methylpiperazin-1-yl)(5-nitro-3-phenyl-1H-indol-2-yl)methanone] | 1.3 | 1.8 | 1.2 | 1.2 | 1.0 | 1.2 | 1.7 | 1.2 | SILAC ratio Rpn2 ([1]; competitor 10 μM): 1.2; SILAC ratio Rpn2 ([1]; competitor 50 μM): 1.4; SILAC ratio Rpn2 ([1]; competitor 100 μM): 1.7; SILAC ratio, Por ([2]; competitor 10 μM): 1.4; SILAC ratio, Por ([2]; competitor 50 μM): 2.0; SILAC ratio, Por ([2]; competitor 100 μM): 3.1; SILAC ratio, Timm23 ([3]; competitor 10 μM): 1.0; SILAC ratio, Timm23 ([3]; competitor 50 μM): 1.3; SILAC ratio, Timm23 ([3]; competitor 100 μM): 1.5; SILAC ratio Immt ([4]; competitor 10 μM): 1.1; SILAC ratio Immt ([4]; competitor 50 μM): 1.1; SILAC ratio Immt ([4]; competitor 100 μM): 1.4; SILAC ratio Eif3f ([5]; competitor 10 μM): 1.0; SILAC ratio Eif3f ([5]; competitor 100 μM): 0.9; SILAC ratio Incenp ([6]; competitor 10 μM): 1.4; SILAC ratio Incenp ([6]; competitor 50 μM): 1.8; SILAC ratio Incenp ([6]; competitor 100 μM): 1.7; SILAC ratio, Sar1a ([8]; competitor 10 μM): 1.3; SILAC ratio, Sar1a ([8]; competitor 50 μM): 1.7; SILAC ratio, Sar1a ([8]; competitor 100 μM): 2.2
C=CCN(C)CCCCCCOc1ccc(C(=O)c2ccc(Br)cc2)c(F)c1 [Ro 48-8071, reference compound] | 1.0 | 1.5 | 1.0 | 1.0 | 0.9 | – | 1.1 | 1.1 | –
